The text below walks through data of patent publication US8772500B2, “TRPV3 modulators” (AbbVie Inc., priority 2011, dated 2014).

A value given as a limit tells only on which side of the number the result lay.

A short description of data set [1]: In vitro rat microsomal stability assay. Type of data set: in vitro ADME, rat (Sprague-Dawley). The following applies: Sprague-Dawley, rat, 0.5 h, 0.5 μM, pH 7.4. The essentials: (§1)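 Incubations ran at 37 °C in NADPH-supplemented rat (Sprague-Dawley) or human hepatic microsomes.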
The nature of data set [2]: In vitro human microsomal stability assay. Type of data set: in vitro ADME. As to conditions: human, 0.5 h, 0.5 μM, pH 7.4. The essentials: as §1
Data set [3] has as its target T1, human TRPV3 (Homo sapiens, UniProt Q8NET8).
T1 construct: expressed in transfected cells
T1 sequence (Q8NET8 1-790): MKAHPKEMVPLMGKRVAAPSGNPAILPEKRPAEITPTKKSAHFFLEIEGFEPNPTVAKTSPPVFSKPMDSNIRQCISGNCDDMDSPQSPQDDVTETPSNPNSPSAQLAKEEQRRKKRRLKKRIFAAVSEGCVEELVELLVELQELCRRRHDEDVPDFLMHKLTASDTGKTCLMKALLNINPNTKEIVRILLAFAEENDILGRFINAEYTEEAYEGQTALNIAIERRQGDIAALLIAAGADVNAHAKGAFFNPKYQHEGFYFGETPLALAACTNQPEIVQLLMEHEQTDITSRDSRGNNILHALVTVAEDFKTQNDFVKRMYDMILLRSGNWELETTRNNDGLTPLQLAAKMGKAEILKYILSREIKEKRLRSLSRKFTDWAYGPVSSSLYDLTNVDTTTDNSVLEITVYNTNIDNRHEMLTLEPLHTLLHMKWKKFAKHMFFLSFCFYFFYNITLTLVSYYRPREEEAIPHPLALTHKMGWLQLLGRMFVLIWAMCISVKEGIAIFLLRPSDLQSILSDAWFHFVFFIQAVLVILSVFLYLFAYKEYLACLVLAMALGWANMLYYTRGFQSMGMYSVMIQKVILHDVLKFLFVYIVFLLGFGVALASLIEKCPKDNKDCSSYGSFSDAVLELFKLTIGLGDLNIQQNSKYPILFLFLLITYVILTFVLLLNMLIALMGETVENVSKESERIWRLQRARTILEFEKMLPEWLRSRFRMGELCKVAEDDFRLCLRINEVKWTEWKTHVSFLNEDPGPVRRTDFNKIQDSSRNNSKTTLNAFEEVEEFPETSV
The experiment in a line: In vitro antagonism of recombinant human TRPV3 activation (FLIPR Tetra calcium assay, 2-APB as agonist). As to conditions: HEK293 cells stably expressing human TRPV3; 2-APB 80 μM; range class; read-out: IC50 (reported range). In kind it is cell-based. The essentials:
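HEK293 cells stably expressing human TRPV3, loaded with Calcium-4 dye for 90-120 min; compound added 3 min before 2-APB at 80 μM (its EC80). Fluorescence (max minus min) over 10 min expressed as % of maximal 2-APB response without antagonist; IC50 mostly averaged from n≧2 runs.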

What is called IC50 is the concentration at which inhibition is half-maximal. For the compound `NC1CCC1C(O)C1(c2cccc(C(F)(F)F)c2)CCC1` (stereo not drawn) [Example 213, (2-aminocyclobutyl){1-[3-(trifluoromethyl)phenyl]cyclobutyl}methanol], in data set [1], the “RAT MICROSOMAL STABILITY (% REMAINING AFTER 30 MINUTES)” value was found to be 72%. The “HUMAN MICROSOMAL STABILITY (% REMAINING AFTER 30 MINUTES)” value in data set [2] is above 85%. Moreover, the IC50 in data set [3] was 1.1 to 5 µM.
The matching figures for `N[C@@H]1CCC[C@@H]1[C@@H](O)C1(c2ccc(Cl)c(Cl)c2)CCC1` [Example 216, (R)-[(1S,2R)-2-aminocyclopentyl][1-(3,4-dichlorophenyl)cyclobutyl]-methanol]: 41%, above 85% and 1.1 to 5 µM.
For `N[C@H]1CCC[C@H]1[C@H](O)C1(c2ccc(Cl)c(Cl)c2)CCC1` [Example 217, (S)-[(1R,2S)-2-aminocyclopentyl][1-(3,4-dichlorophenyl)cyclobutyl]-methanol], in data set [1], the “RAT MICROSOMAL STABILITY (% REMAINING AFTER 30 MINUTES)” value is 68%. In data set [2], the “HUMAN MICROSOMAL STABILITY (% REMAINING AFTER 30 MINUTES)” value worked out at 73%. Moreover, the IC50 in data set [3] fell in the range of 1.1 to 5 µM.
Turning to `N[C@@H]1CCC[C@H]1[C@@H](O)C1(c2ccc(Cl)c(Cl)c2)CCC1` [Example 220, (R)-[(1R,2R)-2-aminocyclopentyl][1-(3,4-dichlorophenyl)cyclobutyl]-methanol], the “RAT MICROSOMAL STABILITY (% REMAINING AFTER 30 MINUTES)” value in data set [1] was found to be 67%. In addition, the “HUMAN MICROSOMAL STABILITY (% REMAINING AFTER 30 MINUTES)” value in data set [2] is above 85%. Moreover, the IC50 in data set [3] is 0.501 to 1 µM.
As to `N[C@@H]1CCC[C@@H]1[C@@H](O)C1(c2ccc(OC(F)(F)F)cc2)CCC1` [Example 221, (R)-[(1S,2R)-2-aminocyclopentyl]{1-[4-(trifluoromethoxy)phenyl]-cyclobutyl}methanol], in data set [1], the “RAT MICROSOMAL STABILITY (% REMAINING AFTER 30 MINUTES)” value was determined as 56%. In addition, in data set [2], the “HUMAN MICROSOMAL STABILITY (% REMAINING AFTER 30 MINUTES)” value was 83%. The IC50 in data set [3] was in the range of 1.1 to 5 µM.
With `N[C@H]1CCC[C@@H]1[C@H](O)C1(c2ccc(OC(F)(F)F)cc2)CCC1` [Example 222, (S)-[(1S,2S)-2-aminocyclopentyl]{1-[4-(trifluoromethoxy)phenyl]-cyclobutyl}methanol], the “RAT MICROSOMAL STABILITY (% REMAINING AFTER 30 MINUTES)” value in data set [1] is on record as 59%. Moreover, the “HUMAN MICROSOMAL STABILITY (% REMAINING AFTER 30 MINUTES)” value in data set [2] is listed as above 85%. Besides, in data set [3], the IC50 lay within 1.1 to 5 µM.
For `N[C@@H]1CCC[C@H]1[C@@H](O)C1(c2ccc(OC(F)(F)F)cc2)CCC1` [Example 223, (R)-[(1R,2R)-2-aminocyclopentyl]{1-[4-(trifluoromethoxy)phenyl]-cyclobutyl}methanol], in that order: 65%, above 85% and 1.1 to 5 µM.
Regarding `N[C@@H]1CCC[C@H]1[C@@H](O)C1(c2ccc(Cl)cc2)CCC1` [Example 224, (R)-[(1R,2R)-2-aminocyclopentyl][1-(4-chlorophenyl)cyclobutyl]methanol], the “RAT MICROSOMAL STABILITY (% REMAINING AFTER 30 MINUTES)” value in data set [1] is 70%. For the same compound, in data set [2], the “HUMAN MICROSOMAL STABILITY (% REMAINING AFTER 30 MINUTES)” value was above 85%. Besides, in data set [3], the IC50 was in the range of 1.1 to 5 µM.
Consider `N[C@H]1CCC[C@@H]1[C@H](O)C1(c2ccc(Cl)cc2)CCC1` [Example 225, (S)-[(1S,2S)-2-aminocyclopentyl][1-(4-chlorophenyl)cyclobutyl]methanol], for which the “RAT MICROSOMAL STABILITY (% REMAINING AFTER 30 MINUTES)” value in data set [1] was determined as 34%. In data set [2], the “HUMAN MICROSOMAL STABILITY (% REMAINING AFTER 30 MINUTES)” value is above 85%. In data set [3], the IC50 was in the range of 1.1 to 5 µM.
For `N[C@H]1CCC[C@H]1[C@@H](O)C1(c2ccccc2F)CCC1` [Example 226, (R)-[(1R,2S)-2-aminocyclopentyl][1-(2-fluorophenyl)cyclobutyl]methanol], in that order: below 0.01%, above 85% and 0.501 to 1 µM.
For `N[C@@H]1CCC[C@H]1[C@@H](O)C1(c2cccc(C(F)(F)F)c2)CCC1` [Example 227, (R)-[(1R,2R)-2-aminocyclopentyl]{1-[3-(trifluoromethyl)phenyl]-cyclobutyl}methanol], in that order: 42%, above 85% and 0.05 to 0.5 µM.
Turning to `CN[C@@H]1CCC[C@H]1[C@@H](O)C1(c2ccc(Cl)c(Cl)c2)CCC1` [Example 228, (R)-[1-(3,4-dichlorophenyl)cyclobutyl][(1R,2R)-2-(methylamino)-cyclopentyl]methanol], the “RAT MICROSOMAL STABILITY (% REMAINING AFTER 30 MINUTES)” value in data set [1] came to 25%. The “HUMAN MICROSOMAL STABILITY (% REMAINING AFTER 30 MINUTES)” value in data set [2] is given as 70%. Moreover, the IC50 in data set [3] fell in the range of 1.1 to 5 µM.
Regarding `N[C@H]1CCC[C@H]1[C@@H](O)C1(c2ccc(OC(F)(F)F)cc2)CCC1` [Example 229, (R)-[(1R,2S)-2-aminocyclopentyl]{1-[4-(trifluoromethoxy)phenyl]-cyclobutyl}methanol], the “RAT MICROSOMAL STABILITY (% REMAINING AFTER 30 MINUTES)” value in data set [1] turned out to be 80%. Moreover, in data set [2], the “HUMAN MICROSOMAL STABILITY (% REMAINING AFTER 30 MINUTES)” value is given as above 85%. Further, in data set [3], the IC50 was 1.1 to 5 µM.
For `O[C@H](c1ccccn1)C1(c2ccc(Cl)c(Cl)c2)CC1` [Example 231, (S)-[1-(3,4-dichlorophenyl)cyclopropyl](pyridin-2-yl)methanol], in that order: 17%, 4.0% and 0.501 to 1 µM.
Regarding `OC(c1ccccn1)C1(c2cccc(C(F)(F)F)n2)CCC1` (stereo not drawn) [Example 234, pyridin-2-yl{1-[6-(trifluoromethyl)pyridin-2-yl]cyclobutyl}methanol], the “RAT MICROSOMAL STABILITY (% REMAINING AFTER 30 MINUTES)” value in data set [1] is 23%. Also, the “HUMAN MICROSOMAL STABILITY (% REMAINING AFTER 30 MINUTES)” value in data set [2] was determined as 19%. Also, the IC50 in data set [3] was in the range of 5.1 to 20 µM.
The matching figures for `OC(c1ccccn1)C1(c2cccc(OC(F)(F)F)c2)CC2(C1)OCCO2` (stereo not drawn) [Example 235, pyridin-2-yl{2-[3-(trifluoromethoxy)phenyl]-5,8-dioxaspiro[3.4]oct-2-yl}-methanol]: below 0.01%, 20% and 1.1 to 5 µM.
For `O=C1CC(c2cccc(OC(F)(F)F)c2)(C(O)c2ccccn2)C1` (stereo not drawn) [Example 237, 3-[hydroxy(pyridin-2-yl)methyl]-3-[3-(trifluoromethoxy)phenyl]-cyclobutanone], in that order: 50%, 51% and 1.1 to 5 µM.
In the case of `O[C@H](c1ccccn1)C1(c2cccc(C(F)(F)F)n2)CCC1` [Example 238, (S)-pyridin-2-yl{1-[6-(trifluoromethyl)pyridin-2-yl]cyclobutyl}methanol], the “RAT MICROSOMAL STABILITY (% REMAINING AFTER 30 MINUTES)” value in data set [1] was found to be 21%. Also, in data set [2], the “HUMAN MICROSOMAL STABILITY (% REMAINING AFTER 30 MINUTES)” value is 7.1%. Moreover, the IC50 in data set [3] was in the range of 1.1 to 5 µM.
In the case of `O[C@H](c1ccccn1)C1(c2ccnc(C(F)(F)F)c2)CCC1` [Example 240, (S)-pyridin-2-yl{1-[2-(trifluoromethyl)pyridin-4-yl]cyclobutyl}methanol], the “RAT MICROSOMAL STABILITY (% REMAINING AFTER 30 MINUTES)” value in data set [1] was determined as 38%. Further, the “HUMAN MICROSOMAL STABILITY (% REMAINING AFTER 30 MINUTES)” value in data set [2] is given as 50%. For the same compound, the IC50 in data set [3] was 0.501 to 1 µM.
For the compound `OC(c1ccccn1)C1(c2cccc(C(F)(F)F)c2)CC2(C1)OCCO2` (stereo not drawn) [Example 242, pyridin-2-yl{2-[3-(trifluoromethyl)phenyl]-5,8-dioxaspiro[3.4]oct-2-yl}-methanol], the “RAT MICROSOMAL STABILITY (% REMAINING AFTER 30 MINUTES)” value in data set [1] is on record as below 0.01%. The “HUMAN MICROSOMAL STABILITY (% REMAINING AFTER 30 MINUTES)” value in data set [2] is 45%. Further, the IC50 in data set [3] is 5.1 to 20 µM.
Turning to `CC1(O)CC(c2cccc(C(F)(F)F)c2)(C(O)c2ccccn2)C1` [Example 244, trans-3-[(S)-hydroxy(pyridin-2-yl)methyl]-1-methyl-3-[3-(trifluoromethyl)-phenyl]cyclobutanol], the “RAT MICROSOMAL STABILITY (% REMAINING AFTER 30 MINUTES)” value in data set [1] came to 77%. Besides, the “HUMAN MICROSOMAL STABILITY (% REMAINING AFTER 30 MINUTES)” value in data set [2] is 80%. In addition, the IC50 in data set [3] was 1.1 to 5 µM.
The matching figures for `O=C1CC(c2cccc(C(F)(F)F)c2)(C(O)c2ccccn2)C1` (stereo not drawn) [Example 245, 3-[hydroxy(pyridin-2-yl)methyl]-3-[3-(trifluoromethyl)phenyl]cyclobutanone]: 72%, 57% and 1.1 to 5 µM.
